From paper PMC10063231, “Human thymopoiesis produces polyspecific CD8^+ α/β T cells responding to multiple viral antigens” (eLife, 2023)

Test system: TCR identified as responding to the VMNILLQYV peptide (GAD 114-122 TCR)
Assay: Response of a cloned GAD 114-122-reactive TCR in the reporter cell line to cognate and unrelated peptides
Format: cell-based, human
Conditions: cognate peptide versus structurally unrelated peptide, Figure 5D

Row | Sequence | Response of GAD 114-122 TCR in reporter cell line
1 | SLYNPAIVYA [peptide from human chondroitin sulfate N-acetylgalactosaminyltransferase 2] | responded even better
2 | VMNILLQYV [peptide from the Glutamic Acid Decarboxylase protein] | responding
